Experiment [1] concerns cytokine IL-8. In words: Inhibition of LPS-triggered IL-8 secretion in THP-1 cells (ELISA of supernatant). Format: cell-based. To be noted: Homo sapiens. As to the method:
The concentration of the cytokines was determined in the supernatant by means of commercially available ELISA kits.
In general terms: An ELISA detects its analyte on a solid surface through an enzyme-linked reagent.

The target in experiment [2] is T1, glucocorticoid receptor (GR) (Homo sapiens, UniProt P04150).
T1 construct: made in house; host or cells: Sf9 cells infected with recombinant baculovirus (cytosol preparation)
T1 sequence (P04150 1-777): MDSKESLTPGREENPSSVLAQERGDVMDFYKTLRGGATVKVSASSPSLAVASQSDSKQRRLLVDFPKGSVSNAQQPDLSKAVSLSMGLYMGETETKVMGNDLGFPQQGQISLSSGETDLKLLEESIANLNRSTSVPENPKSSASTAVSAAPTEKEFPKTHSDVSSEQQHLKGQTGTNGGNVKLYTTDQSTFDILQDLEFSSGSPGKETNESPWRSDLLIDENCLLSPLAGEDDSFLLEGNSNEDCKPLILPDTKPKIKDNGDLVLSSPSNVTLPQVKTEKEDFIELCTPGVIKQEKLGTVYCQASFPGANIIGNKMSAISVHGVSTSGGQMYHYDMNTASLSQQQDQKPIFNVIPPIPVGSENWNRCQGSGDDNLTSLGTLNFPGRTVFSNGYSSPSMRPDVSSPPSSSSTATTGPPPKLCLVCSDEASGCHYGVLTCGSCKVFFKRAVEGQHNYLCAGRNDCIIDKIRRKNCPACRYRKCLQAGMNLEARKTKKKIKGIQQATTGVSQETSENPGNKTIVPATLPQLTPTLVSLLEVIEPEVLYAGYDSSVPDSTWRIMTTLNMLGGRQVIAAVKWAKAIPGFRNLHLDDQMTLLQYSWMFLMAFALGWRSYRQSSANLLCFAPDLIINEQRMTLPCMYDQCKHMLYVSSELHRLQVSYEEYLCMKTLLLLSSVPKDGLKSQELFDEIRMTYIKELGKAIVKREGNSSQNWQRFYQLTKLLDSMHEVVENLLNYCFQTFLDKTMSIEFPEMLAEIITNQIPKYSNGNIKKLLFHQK
In words: Binding to recombinantly produced glucocorticoid receptor (cytosol of baculovirus-infected Sf9 cells, [3H]-dexamethasone as reference). The note with it: recombinant GR, Sf9 cytosol preparations. From the text: (§1) The binding of the substances to the glucocorticoid receptor (GR) and other steroid hormone receptors (mineral corticoid receptor (MR), progesterone receptor (PR) and androgen receptor (AR)) is examined with the aid of recombinantly produced receptors. Cytosol preparations of Sf9 cells, which had been infected with recombinant baculoviruses, which code for the GR, are used for the binding studies. In comparison to reference substance [^3H]-dexamethasone, the substances show a high to very high affinity to GR.

Experiment [3] deals with T2, mineral corticoid receptor (MR) (Homo sapiens, UniProt P08235).
T2 construct: made in house
T2 sequence (P08235 1-984): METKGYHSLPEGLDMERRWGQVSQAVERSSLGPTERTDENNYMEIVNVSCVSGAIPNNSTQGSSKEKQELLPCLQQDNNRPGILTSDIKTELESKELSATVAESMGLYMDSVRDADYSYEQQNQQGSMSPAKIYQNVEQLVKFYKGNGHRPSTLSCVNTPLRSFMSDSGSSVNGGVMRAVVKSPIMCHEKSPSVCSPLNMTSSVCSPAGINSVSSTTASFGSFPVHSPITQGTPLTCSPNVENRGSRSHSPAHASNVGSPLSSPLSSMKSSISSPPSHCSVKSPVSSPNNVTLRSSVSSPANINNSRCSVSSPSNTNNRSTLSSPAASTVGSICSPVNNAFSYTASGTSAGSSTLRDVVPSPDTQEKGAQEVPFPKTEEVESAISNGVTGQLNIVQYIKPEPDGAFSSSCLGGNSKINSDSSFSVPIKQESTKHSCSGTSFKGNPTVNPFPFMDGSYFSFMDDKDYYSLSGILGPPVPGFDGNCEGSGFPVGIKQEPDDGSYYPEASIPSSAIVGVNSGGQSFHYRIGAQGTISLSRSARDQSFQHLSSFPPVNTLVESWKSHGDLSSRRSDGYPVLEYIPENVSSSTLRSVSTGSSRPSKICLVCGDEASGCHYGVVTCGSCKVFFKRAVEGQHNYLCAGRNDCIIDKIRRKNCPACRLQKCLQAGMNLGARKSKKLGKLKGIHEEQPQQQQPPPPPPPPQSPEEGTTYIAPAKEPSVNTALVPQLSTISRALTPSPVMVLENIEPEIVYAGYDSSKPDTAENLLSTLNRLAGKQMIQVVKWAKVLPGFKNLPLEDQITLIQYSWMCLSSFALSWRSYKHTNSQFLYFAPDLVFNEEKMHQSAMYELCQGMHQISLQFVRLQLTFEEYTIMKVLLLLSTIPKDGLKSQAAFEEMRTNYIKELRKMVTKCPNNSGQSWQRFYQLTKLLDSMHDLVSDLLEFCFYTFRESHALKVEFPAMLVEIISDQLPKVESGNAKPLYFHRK
In words: Binding to recombinantly produced mineral corticoid receptor.
Description: as §1

For experiment [4], the target named is T3, progesterone receptor (PR) (Homo sapiens, UniProt P06401).
T3 construct: made in house
T3 sequence (P06401 1-933): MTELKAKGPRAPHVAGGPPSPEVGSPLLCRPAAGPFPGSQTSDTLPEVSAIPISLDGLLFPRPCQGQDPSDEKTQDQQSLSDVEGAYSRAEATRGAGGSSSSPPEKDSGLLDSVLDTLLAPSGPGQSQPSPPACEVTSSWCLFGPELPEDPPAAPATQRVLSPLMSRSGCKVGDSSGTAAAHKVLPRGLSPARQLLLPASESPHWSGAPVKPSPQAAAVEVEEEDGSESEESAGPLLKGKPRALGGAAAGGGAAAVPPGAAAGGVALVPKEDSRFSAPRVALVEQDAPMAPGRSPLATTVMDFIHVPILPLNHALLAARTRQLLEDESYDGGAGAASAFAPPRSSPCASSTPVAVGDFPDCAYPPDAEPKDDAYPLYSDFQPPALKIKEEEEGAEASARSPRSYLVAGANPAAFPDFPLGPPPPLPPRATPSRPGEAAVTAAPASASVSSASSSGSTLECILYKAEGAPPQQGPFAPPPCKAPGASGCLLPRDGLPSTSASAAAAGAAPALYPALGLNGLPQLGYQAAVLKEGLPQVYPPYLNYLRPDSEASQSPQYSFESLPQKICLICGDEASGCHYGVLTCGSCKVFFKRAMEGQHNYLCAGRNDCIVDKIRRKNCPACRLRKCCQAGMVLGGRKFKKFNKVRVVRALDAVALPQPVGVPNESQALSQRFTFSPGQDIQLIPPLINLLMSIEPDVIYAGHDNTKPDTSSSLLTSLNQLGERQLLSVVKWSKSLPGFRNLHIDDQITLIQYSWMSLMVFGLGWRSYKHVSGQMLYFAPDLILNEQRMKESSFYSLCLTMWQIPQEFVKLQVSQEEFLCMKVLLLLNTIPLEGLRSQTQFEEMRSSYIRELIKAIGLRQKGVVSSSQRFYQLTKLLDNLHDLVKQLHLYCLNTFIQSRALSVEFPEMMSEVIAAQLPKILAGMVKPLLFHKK
Description: Binding to recombinantly produced progesterone receptor.
Description: as §1

The target of experiment [5] is T4, androgen receptor (AR) (Homo sapiens, UniProt P10275).
T4 construct: made in house
T4 sequence (P10275 1-920): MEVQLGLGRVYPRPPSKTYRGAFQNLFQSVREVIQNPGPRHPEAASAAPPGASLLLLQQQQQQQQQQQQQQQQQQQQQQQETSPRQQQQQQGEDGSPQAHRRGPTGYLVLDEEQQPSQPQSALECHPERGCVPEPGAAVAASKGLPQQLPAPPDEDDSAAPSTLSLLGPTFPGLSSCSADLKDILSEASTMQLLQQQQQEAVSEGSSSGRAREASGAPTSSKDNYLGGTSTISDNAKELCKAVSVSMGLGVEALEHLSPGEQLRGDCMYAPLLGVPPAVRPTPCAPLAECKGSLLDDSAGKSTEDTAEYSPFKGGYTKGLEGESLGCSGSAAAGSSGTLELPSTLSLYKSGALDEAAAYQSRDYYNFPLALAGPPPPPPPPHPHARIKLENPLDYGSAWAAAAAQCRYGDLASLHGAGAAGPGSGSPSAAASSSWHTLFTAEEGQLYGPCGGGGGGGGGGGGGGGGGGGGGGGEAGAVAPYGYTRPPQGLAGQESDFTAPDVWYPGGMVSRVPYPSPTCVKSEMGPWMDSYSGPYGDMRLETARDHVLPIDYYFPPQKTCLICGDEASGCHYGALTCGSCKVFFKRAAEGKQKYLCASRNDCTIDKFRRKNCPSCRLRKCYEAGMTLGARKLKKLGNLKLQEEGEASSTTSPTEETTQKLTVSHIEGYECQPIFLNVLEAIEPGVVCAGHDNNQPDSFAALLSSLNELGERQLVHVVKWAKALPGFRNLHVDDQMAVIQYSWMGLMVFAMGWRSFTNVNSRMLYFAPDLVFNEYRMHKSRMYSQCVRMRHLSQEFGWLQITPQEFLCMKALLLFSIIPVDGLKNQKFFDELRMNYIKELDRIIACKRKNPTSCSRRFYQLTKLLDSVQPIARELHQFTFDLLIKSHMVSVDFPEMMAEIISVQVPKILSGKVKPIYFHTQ
Description: Binding to recombinantly produced androgen receptor.
Description: as §1

Experiment [6] addresses ER. In words: Binding to ER (steroid receptor selectivity profile).

For `COc1c(C(C)C)ccc2c1C(C)(C)CC(O)(C(F)(F)F)C2Nc1cccc2c1ccc(=O)n2-c1ccc(F)nc1` (stereo not shown) [Example 1, 5-{[2-Hydroxy-6-isopropyl-5-methoxy-4,4-dimethyl-2-(trifluoromethyl)-1,2,3,4-tetrahydronaphthalene-1-yl]amino}-1-(6-fluoropyridine-3-yl)-1H-quinoline-2-one], the IC50 in experiment [1] (LPS-triggered IL-8 secretion, read-out: IC50(IL8)) worked out at 30 nM. Also, in experiment [1] (efficacy of IL-8 inhibition, LPS, read-out: eff. relative to dexamethasone), the Emax turned out to be 84.1%.
Regarding `CC(C)c1ccc2c(c1O)C(C)(C)CC(O)(C(F)(F)F)C2Nc1cccc2c1ccc(=O)n2-c1ccc(F)nc1` (stereo not shown) [Example 2, 5-{[2,5-Dihydroxy-6-isopropyl-4,4-dimethyl-2-(trifluoromethyl)-1,2,3,4-tetrahydronaphthalene-1-yl]amino}-1-(6-fluoropyridine-3-yl)-1H-quinoline-2-one], the IC50 in experiment [2] was 32 nM; in experiment [3] it was greater than 1000 nM; in experiment [4], greater than 1000 nM; in experiment [5], greater than 1000 nM; in experiment [6], greater than 1000 nM.

One may read the IC50 as the concentration that inhibits the measured activity by half.
